Legend:
Assay type in all cases: cell-based
[1] = target: T1, alpha 2A adrenergic receptor (Homo sapiens, UniProt P08913); test: RSAT (Receptor Selection and Amplification Technology) assay, alpha 2A; details: for EC50: NIH-3T3 cells cotransfected with receptor and Gq/i5
T1 construct: expressed in transfected cells; host or cells: NIH-3T3 cells, transient cotransfection by calcium phosphate
T1 sequence (P08913 1-465): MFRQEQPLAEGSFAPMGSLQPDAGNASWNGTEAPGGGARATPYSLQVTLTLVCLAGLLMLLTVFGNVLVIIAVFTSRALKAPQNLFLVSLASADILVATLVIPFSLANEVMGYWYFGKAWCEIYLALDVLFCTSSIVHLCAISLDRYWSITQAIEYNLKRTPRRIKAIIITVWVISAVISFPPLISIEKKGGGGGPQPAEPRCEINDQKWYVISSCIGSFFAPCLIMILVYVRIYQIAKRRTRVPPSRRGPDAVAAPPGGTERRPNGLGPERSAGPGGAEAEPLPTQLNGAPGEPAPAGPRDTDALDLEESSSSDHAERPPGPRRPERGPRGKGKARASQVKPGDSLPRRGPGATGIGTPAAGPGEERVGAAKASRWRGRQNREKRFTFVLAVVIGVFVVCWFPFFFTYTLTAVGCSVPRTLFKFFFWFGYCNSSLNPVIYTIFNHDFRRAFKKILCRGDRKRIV
Experimental: (§1) Activity was measured using the RSAT (Receptor Selection and Amplification Technology) assay, developed by Receptor Technologies, Inc. of Winooski, Vt. (now Acadia Pharmaceuticals of San Diego, Calif.), adapted for use with recombinant alpha2 adrenergic receptors in collaboration with Allergan. The assay measures receptor-mediated loss of contact inhibition that results in selective proliferation of receptor-containing cells in a mixed population of confluent cells. The increase in cell number is assessed with an appropriate transfected marker gene such as β-galactosidase, the activity of which can be easily measured in a 96-well format. Receptors that activate the G protein, Gq, elicit this response. Alpha2 receptors, which normally couple to Gi, activate the RSAT response when coexpressed with a hybrid Gq protein that has a Gi receptor recognition domain, called Gq/i5.
(§2) The assay is conducted as follows. NIH-3T3 cells are plated at a density of 2×10^6 cells in 15 cm dishes and maintained in Dulbecco's modified Eagle's medium supplemented with 10% calf serum. One day later, cells are cotransfected by calcium phosphate precipitation with mammalian expression plasmids encoding p-SV-β-galactosidase (5-10 μg), receptor (1-2 μg) and G protein (1-2 μg). 40 μg salmon sperm DNA may also be included in the transfection mixture to increase transfection efficiency. Fresh media is added on the following day and 1-2 days later, cells are harvested and frozen in 50 assay aliquots. Transfectant cells are thawed and 100 μl added to 100 μl aliquots of various concentrations of drugs in triplicate in 96-well dishes. Incubations continue 72-96 hr at 37°. After washing with phosphate-buffered saline, β-galactosidase enzyme activity is determined by adding 200 μl of the chromogenic substrate (consisting of 3.5 mM o-nitrophenyl-β-D-galactopyranoside and 0.5% of the non-ionic surfactant nonidet P-40 in phosphate buffered saline), incubating overnight at 30° and measuring optical density at 420 nm. The absorbency is a measure of enzyme activity, which depends on cell number and reflects a receptor-mediated cell proliferation. The EC50 and maximal effect of each drug at each alpha2 receptor is determined. The efficacy or intrinsic activity is calculated as a ratio of the maximal effect of the drug to the maximal effect of a standard full agonist for each receptor subtype. Brimonidine, also called UK14304, is used as the standard agonist for the alpha2A, alpha2B and alpha2C receptors. The RSAT assay is also discussed in Messier et al. (1995) High throughput assays of cloned adrenergic, muscarinic, neurokinin and neurotrophin receptors in living mammalian cells, Pharmacol. Toxicol. 76:308-11; see also Conklin et al. (1993) Substitution of three amino acids switches receptor specificity of Gqα to that of Giα, Nature 363:274-6; Both of these papers are incorporated by reference herein.

[2] = target: T2, alpha 2B adrenergic receptor (Homo sapiens, UniProt P18089); test: RSAT (Receptor Selection and Amplification Technology) assay, alpha 2B; details: for EC50: NIH-3T3 cells cotransfected with receptor and Gq/i5; for efficacy or intrinsic activity (value in parentheses) Alpha 2B: ratio of maximal effect to that of standard full agonist brimonidine
T2 construct: expressed in transfected cells; host or cells: NIH-3T3 cells, transient cotransfection by calcium phosphate
T2 sequence (P18089 1-450): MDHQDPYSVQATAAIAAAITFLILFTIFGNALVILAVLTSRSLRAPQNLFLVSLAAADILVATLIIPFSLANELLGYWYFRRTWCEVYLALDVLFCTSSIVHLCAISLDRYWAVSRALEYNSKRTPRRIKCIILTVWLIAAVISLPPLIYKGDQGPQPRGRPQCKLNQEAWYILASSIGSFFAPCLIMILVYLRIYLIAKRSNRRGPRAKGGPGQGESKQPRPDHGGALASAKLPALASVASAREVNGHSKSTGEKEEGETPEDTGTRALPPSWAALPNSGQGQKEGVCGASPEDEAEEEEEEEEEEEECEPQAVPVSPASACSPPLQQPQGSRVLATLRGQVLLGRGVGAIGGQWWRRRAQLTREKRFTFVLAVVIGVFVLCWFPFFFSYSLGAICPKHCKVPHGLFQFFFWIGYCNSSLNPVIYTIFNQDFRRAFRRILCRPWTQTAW
Experimental: as §1, §2

[3] = target: T3, alpha 2C adrenergic receptor (Homo sapiens, UniProt P18825); test: RSAT (Receptor Selection and Amplification Technology) assay, alpha 2C; details: for EC50: NIH-3T3 cells cotransfected with receptor and Gq/i5; for efficacy or intrinsic activity (value in parentheses) Alpha 2C: ratio of maximal effect to that of standard full agonist brimonidine
T3 construct: expressed in transfected cells; host or cells: NIH-3T3 cells, transient cotransfection by calcium phosphate
T3 sequence (P18825 1-462): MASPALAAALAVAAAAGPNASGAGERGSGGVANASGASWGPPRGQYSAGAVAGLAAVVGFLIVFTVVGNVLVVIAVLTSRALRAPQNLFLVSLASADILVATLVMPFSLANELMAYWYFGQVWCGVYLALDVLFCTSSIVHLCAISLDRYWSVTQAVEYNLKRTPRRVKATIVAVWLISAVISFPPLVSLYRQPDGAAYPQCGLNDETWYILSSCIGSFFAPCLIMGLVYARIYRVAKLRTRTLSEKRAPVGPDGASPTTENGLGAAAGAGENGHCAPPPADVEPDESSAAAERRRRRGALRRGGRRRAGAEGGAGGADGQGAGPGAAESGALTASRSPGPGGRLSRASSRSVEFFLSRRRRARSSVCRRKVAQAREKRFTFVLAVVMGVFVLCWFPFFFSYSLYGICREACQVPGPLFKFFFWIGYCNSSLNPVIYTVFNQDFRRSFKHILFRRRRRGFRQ
Experimental: as §1, §2

Row | Compound | EC50 [1] | EC50 [2] | efficacy or intrinsic activity (value in parentheses) Alpha 2B [2] | EC50 [3] | efficacy or intrinsic activity (value in parentheses) Alpha 2A ([1]; ratio of maximal effect to that of standard full agonist brimonidine) | efficacy or intrinsic activity (value in parentheses) Alpha 2C [3]
1 | Cc1ccc(Br)c(CNC(=S)NCCO)c1F | ≥ 210000 nM | 115 nM | 0.8 | > 3000 nM | – | –
2 | OCCNC(=S)NCc1cccc(I)c1 | 63 nM | 30 nM | 1.16 | 232 nM | 0.42 | 0.58
3 | OCCNC(=S)NCc1cc(F)ccc1F | ≥ 210000 nM | 13 nM | 0.85 | 53 nM | – | 0.51
4 | COc1cccc(CNC(=S)NCCO)c1F | > 2000 nM | 429 nM | 1.04 | > 3000 nM | – | –
5 | OCCNC(=S)NCc1c(F)c(F)c(F)c(F)c1F | ≥ 210000 nM | 2360 nM | 0.73 | ≥ 210000 nM | – | –
6 | OCCNC(=S)NCc1c(F)cccc1C(F)(F)F | ≥ 210000 nM | 137 nM | 0.68 | 617 nM | – | 0.37
7 | OCCNC(=S)NCc1cccc(Cl)c1Cl | ≥ 210000 nM | 3 nM | 0.99 | 54.5 nM | – | 0.33
8 | OCCNC(=S)NCc1c(F)cccc1F | ≥ 210000 nM | 462 nM | 0.45 | 5060 nM | – | 0.4
9 | OCCNC(=S)NCc1c(F)cccc1I | ≥ 210000 nM | 141 nM | 1.08 | > 2000 nM | – | –
10 | OCCNC(=S)NCc1c(F)ccc(Cl)c1Cl | ≥ 210000 nM | 30 nM | 0.75 | 238 nM | – | 0.34
11 | OCCNC(=S)NCc1c(Br)ccc(F)c1F | ≥ 210000 nM | 48 nM | 0.60 | ≥ 210000 nM | – | –
12 | OCCNC(=S)NCc1cccc(C(F)(F)F)c1F | ≥ 210000 nM | 37 nM | 0.7 | 632 nM | – | 0.3
13 | OCCNC(=S)NCc1ccccc1Br | ≥ 210000 nM | 10 nM | 0.8 | 273 nM | – | 0.4
14 | Cc1cccc(CNC(=S)NCCO)c1 | ≥ 210000 nM | 913 nM | 0.9 | 602 nM | – | 0.3
15 | Cc1cc(Br)c(F)c(CNC(=S)NCCO)c1 | > 2000 nM | 22 nM | 0.73 | 819 nM | – | 0.56

Reference: patent publication US6545182B2, “Methods and compositions for modulating alpha adrenergic receptor activity” (Allergan Sales, Inc., priority 2000, dated 2003)
